PubChem BioAssay (NCI)
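Step 1: Grow cells in 96-well plates. Step 2: Expose to compound for 48 hours at 5 concentrations. Step 3: Interpolate endpoints linearly; if unreached, use highest concentration. At the GI50, growth is halved. TGI: total growth inhibition.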

Key:
Assay in all cases: NCI anticancer screen, dose series, 48 h
EKVX NSCLC = tested on: EKVX NSCLC
IGROV1 ovarian = tested on: IGROV1 ovarian
LOX IMVI melanoma = tested on: LOX IMVI melanoma
MALME-3M melanoma = tested on: MALME-3M melanoma
OVCAR-5 ovarian = tested on: OVCAR-5 ovarian
SR leukemia = tested on: SR leukemia
U251 CNS = tested on: U251 CNS
UO-31 renal = tested on: UO-31 renal
HCC-2998 colon = tested on: HCC-2998 colon
KM20L2 colon = tested on: KM20L2 colon
SNB-19 CNS = tested on: SNB-19 CNS
SNB-78 CNS = tested on: SNB-78 CNS

| Compound | GI50 (EKVX NSCLC) [µM] | TGI (EKVX NSCLC) [µM] | GI50 (IGROV1 ovarian) [µM] | TGI (IGROV1 ovarian) [µM] | GI50 (LOX IMVI melanoma) [µM] | TGI (LOX IMVI melanoma) [µM] | GI50 (MALME-3M melanoma) [µM] | TGI (MALME-3M melanoma) [µM] | GI50 (OVCAR-5 ovarian) [µM] | TGI (OVCAR-5 ovarian) [µM] | GI50 (SR leukemia) [µM] | TGI (SR leukemia) [µM] | GI50 (U251 CNS) [µM] | TGI (U251 CNS) [µM] | GI50 (UO-31 renal) [µM] | TGI (HCC-2998 colon) [µM] | TGI (KM20L2 colon) [µM] | TGI (SNB-19 CNS) [µM] | TGI (SNB-78 CNS) [µM] | TGI (UO-31 renal) [µM] |
| --- | --- | --- | --- | --- | --- | --- | --- | --- | --- | --- | --- | --- | --- | --- | --- | --- | --- | --- | --- | --- |
| O=C1c2ccccc2-c2c1c1ccccc1c(=O)n2CCCNCCNCCCn1c2c(c3ccccc3c1=O)C(=O)c1ccccc1-2 | 1.23 | 2.88 | < 0.0367 | > 32.9 | < 0.01 | 0.355 | 0.681 | 2.27 | 1.29 | 2.93 | 0.0509 | > 100 | 0.118 | 2.33 | 0.342 | – | – | – | – | – |
| CCC12CCC[C@@]13C=C[C@H](O3)C(C)(C)C2=O (stereo partly drawn) | – | > 100 | – | > 100 | – | > 100 | – | > 100 | – | > 100 | – | > 100 | – | > 100 | – | > 100 | > 100 | > 100 | > 100 | > 100 |
| CC1(C)N=C(/C(Cl)=[N+](/[O-])C(=O)c2ccc(Cl)cc2)C(C)(C)N1O | – | > 100 | – | > 100 | – | 20.4 | – | 35.9 | – | 42.5 | – | > 100 | – | 55.5 | – | 63 | – | > 100 | – | > 100 |
| Cc1ccc(NC(=O)CC/C(CC(=O)C(C)(C)C)=N/NC(=O)c2cc3ccccc3cc2O)cc1C | – | > 100 | – | > 100 | – | 62.9 | – | > 100 | – | > 100 | – | – | – | > 100 | – | 55 | > 100 | > 100 | > 100 | > 100 |
